Assay results: ChEMBL document CHEMBL1201862, “PubChem BioAssay data set” (2004)
Calls of active or inactive are those of the source.

Assays:
[1] = target: T1, Orexin/Hypocretin receptor type 1 (Homo sapiens, UniProt O43613); test: (§1) Fluorescence-based cell-based high throughput dose response assay for antagonists of the orexin 1 receptor (OX1R; HCRTR1). [Related pubchem assays (depositor defined):AID434989, AID435008, AID463079, AID485270, AID492963, AID492964, AID492965, AID493232, AID504717, AID504718]; assay type: functional
T1 sequence (O43613 whole entry): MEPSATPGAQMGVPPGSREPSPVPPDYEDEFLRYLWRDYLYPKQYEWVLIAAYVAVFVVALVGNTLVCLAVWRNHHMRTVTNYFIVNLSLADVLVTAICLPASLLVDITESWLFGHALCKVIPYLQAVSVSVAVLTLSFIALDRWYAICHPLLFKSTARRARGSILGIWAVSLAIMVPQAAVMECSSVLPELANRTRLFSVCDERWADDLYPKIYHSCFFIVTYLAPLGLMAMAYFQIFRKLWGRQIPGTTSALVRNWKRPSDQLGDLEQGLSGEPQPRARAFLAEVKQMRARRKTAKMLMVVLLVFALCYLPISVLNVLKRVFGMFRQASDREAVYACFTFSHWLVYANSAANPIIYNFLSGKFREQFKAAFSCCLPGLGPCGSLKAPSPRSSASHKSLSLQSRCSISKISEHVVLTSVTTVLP

[2] = (§2) Counterscreen for antagonists of the orexin 1 receptor (OX1R; HCRTR1): Fluorescence-based cell-based high throughput dose response assay to identify antagonists of the parental CHO cell line. [Related pubchem assays (depositor defined):AID434989, AID435008, AID463079, AID485270, AID492963, AID492964, AID492965, AID493232, AID504699, AID504701]; assay type: functional
[3] = target: T1, Orexin/Hypocretin receptor type 1; test: as §1, with “Homogeneous Time Resolved Fluorescence (HTRF)-based” for “Fluorescence-based”; assay type: functional
[4] = target: T2, Orexin receptor type 2 (Homo sapiens, UniProt O43614); test: Counterscreen assay for antagonists of the orexin 1 receptor (OX1R; HCRTR1): Fluorescence-based cell-based dose response assay for antagonists of the orexin 2 receptor (OX2R; HCRTR2), run by assay provider.; assay type: functional
T2 sequence (O43614 whole entry): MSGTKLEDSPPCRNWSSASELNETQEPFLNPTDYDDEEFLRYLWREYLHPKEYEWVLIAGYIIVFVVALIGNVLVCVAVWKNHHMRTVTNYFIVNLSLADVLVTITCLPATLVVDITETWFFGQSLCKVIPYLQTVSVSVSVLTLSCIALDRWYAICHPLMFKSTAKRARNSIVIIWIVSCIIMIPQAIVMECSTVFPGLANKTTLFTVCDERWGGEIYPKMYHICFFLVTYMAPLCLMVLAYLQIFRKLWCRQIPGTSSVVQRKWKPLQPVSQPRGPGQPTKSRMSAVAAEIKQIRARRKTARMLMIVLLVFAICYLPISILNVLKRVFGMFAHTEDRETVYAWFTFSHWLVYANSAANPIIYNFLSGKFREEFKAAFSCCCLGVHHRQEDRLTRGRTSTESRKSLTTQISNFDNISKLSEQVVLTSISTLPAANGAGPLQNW

[5] = target: T2, Orexin receptor type 2; test: Counterscreen assay for antagonists of the orexin 1 receptor (OX1R; HCRTR1): Homogeneous Time Resolved Fluorescence (HTRF)-based cell-based dose response assay for antagonists of the orexin 2 receptor (OX2R; HCRTR2), run by assay provider.; assay type: functional
[6] = tested on: CHO-K1; test: as §2, with “Homogeneous time resolved fluorescence (HTRF)-based” for “Fluorescence-based”, “cell-based” for “cell-based high throughput”, “CHO-K1” for “CHO”; assay type: functional; conditions: Cricetulus griseus;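 also: potency for inhibition of ATP-stimulated IP1 production as antagonists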
[7] = tested on: HEK293; test: membrane integrity loss in HEK cells – cell-based, fluorescence, cytotoxicity control for IDE activator project, dose response (AID 588440); assay type: functional; conditions: Homo sapiens;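 also: cytotoxicity by LDH release measuring loss of membrane integrity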
[8] = tested on: HEK293; test: optical interference in Abeta FP readout, dose response, artefact control for IDE activator project, biochemical, fluorescence polarization (AID 588442); assay type: functional, cell-based; conditions: Homo sapiens
[9] = target: T3, Insulin-degrading enzyme (Homo sapiens, UniProt P14735); test: recombinant IDE activation, cell-free – biochemical, fluorescence polarization, counter-screen for IDE activator project, dose response (AID 588681)
T3 sequence (P14735 whole entry): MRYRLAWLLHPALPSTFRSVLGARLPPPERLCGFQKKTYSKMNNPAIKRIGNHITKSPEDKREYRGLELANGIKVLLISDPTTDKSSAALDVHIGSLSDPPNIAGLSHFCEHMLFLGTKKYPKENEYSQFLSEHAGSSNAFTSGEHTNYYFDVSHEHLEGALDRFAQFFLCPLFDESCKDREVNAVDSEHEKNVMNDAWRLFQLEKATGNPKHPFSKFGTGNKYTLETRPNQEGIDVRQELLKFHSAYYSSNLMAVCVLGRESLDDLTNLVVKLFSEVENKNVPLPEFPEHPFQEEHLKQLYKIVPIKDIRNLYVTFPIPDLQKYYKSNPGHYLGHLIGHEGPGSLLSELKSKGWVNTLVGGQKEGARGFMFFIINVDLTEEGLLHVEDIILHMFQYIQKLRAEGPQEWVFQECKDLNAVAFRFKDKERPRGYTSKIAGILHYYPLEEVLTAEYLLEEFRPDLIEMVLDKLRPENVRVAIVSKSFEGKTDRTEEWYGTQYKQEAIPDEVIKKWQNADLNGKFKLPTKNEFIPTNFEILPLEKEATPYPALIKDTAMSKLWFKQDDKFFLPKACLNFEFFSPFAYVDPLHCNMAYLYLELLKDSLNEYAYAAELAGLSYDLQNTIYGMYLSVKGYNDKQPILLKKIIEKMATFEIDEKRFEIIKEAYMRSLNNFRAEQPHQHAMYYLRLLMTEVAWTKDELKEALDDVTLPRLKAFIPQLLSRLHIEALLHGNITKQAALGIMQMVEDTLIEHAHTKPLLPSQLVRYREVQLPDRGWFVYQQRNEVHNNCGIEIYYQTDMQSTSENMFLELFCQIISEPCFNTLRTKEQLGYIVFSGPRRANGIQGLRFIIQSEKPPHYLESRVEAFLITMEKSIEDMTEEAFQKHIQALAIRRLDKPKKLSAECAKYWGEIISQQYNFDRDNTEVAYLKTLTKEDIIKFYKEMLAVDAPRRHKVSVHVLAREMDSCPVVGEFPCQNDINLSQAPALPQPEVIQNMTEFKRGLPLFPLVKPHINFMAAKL

[10] = target: T3, Insulin-degrading enzyme; test: cellular IDE activation of Abeta substrate cleavage – fluorescence polarization, HEK cells, dose response (AID 588439); assay type: functional, cell-based
[11] = target: T4, Caspase-3 (Homo sapiens, UniProt P42574); test: SAR Analysis of small molecule inhibitors of Sentrin-specific proteases (SENPs) using a Caspase-3 Selectivity assay. [Related pubchem assays (depositor defined):AID2540, AID2599, AID434973, AID489001]; assay type: functional
T4 sequence (P42574 whole entry): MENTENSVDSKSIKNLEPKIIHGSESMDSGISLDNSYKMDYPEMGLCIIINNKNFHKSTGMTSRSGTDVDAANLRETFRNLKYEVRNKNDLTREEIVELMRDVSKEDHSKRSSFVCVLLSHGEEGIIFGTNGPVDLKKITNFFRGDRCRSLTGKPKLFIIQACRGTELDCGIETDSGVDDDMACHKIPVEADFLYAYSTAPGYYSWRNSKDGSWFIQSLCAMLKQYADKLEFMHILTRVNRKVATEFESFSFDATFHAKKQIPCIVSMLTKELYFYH

[12] = target: T5, Sentrin-specific protease 8 (Homo sapiens, UniProt Q96LD8); test: inhibition of human SENP8 cleavage activity – biochemical, luminescence, SAR follow-up (AID 504501); assay type: functional
T5 sequence (Q96LD8 whole entry): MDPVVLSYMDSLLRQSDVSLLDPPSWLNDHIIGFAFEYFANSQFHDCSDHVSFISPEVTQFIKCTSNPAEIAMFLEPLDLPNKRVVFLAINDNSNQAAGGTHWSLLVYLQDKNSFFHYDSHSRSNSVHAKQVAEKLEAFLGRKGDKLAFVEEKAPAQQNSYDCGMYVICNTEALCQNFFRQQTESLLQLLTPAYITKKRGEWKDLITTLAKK

[13] = target: T6, Sentrin-specific protease 6 (Homo sapiens, UniProt Q9GZR1); test: SAR Analysis of small molecule inhibitors of Sentrin-specific protease 6 (SENP6) using a Luminescent assay. [Related pubchem assays (depositor defined):AID2582, AID2599]; assay type: functional
T6 sequence (Q9GZR1 whole entry): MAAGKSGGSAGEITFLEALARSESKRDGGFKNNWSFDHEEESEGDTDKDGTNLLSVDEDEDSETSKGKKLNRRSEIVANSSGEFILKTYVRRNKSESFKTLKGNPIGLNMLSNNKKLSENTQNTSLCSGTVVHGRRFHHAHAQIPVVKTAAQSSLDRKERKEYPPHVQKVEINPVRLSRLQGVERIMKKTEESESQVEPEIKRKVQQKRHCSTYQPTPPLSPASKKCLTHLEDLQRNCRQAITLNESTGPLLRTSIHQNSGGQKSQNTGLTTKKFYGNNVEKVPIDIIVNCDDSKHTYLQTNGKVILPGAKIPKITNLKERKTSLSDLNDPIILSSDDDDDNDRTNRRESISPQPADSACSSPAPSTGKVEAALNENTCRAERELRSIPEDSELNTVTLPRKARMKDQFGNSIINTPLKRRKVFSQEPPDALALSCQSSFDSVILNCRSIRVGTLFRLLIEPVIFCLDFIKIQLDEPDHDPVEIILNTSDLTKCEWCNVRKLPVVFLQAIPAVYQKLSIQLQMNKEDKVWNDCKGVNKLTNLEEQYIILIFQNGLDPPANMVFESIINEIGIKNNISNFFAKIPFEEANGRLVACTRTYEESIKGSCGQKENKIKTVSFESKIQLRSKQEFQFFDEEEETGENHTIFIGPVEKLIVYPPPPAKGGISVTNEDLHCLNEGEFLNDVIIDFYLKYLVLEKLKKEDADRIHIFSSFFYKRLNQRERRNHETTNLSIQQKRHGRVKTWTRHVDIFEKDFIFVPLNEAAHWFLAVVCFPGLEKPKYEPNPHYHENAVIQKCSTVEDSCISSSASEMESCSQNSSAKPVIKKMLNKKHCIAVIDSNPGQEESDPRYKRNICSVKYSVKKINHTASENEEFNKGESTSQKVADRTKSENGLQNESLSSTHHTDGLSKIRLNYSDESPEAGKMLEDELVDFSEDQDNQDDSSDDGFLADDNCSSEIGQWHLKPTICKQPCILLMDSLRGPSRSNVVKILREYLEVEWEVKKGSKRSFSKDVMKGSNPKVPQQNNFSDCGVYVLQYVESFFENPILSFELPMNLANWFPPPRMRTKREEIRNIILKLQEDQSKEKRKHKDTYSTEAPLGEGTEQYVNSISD

[14] = target: T7, Sentrin-specific protease 7 (Homo sapiens, UniProt Q9BQF6); test: inhibition of human SENP7 cleavage activity – biochemical, luminescence, SAR follow-up (AID 504497); assay type: functional
T7 sequence (Q9BQF6 whole entry): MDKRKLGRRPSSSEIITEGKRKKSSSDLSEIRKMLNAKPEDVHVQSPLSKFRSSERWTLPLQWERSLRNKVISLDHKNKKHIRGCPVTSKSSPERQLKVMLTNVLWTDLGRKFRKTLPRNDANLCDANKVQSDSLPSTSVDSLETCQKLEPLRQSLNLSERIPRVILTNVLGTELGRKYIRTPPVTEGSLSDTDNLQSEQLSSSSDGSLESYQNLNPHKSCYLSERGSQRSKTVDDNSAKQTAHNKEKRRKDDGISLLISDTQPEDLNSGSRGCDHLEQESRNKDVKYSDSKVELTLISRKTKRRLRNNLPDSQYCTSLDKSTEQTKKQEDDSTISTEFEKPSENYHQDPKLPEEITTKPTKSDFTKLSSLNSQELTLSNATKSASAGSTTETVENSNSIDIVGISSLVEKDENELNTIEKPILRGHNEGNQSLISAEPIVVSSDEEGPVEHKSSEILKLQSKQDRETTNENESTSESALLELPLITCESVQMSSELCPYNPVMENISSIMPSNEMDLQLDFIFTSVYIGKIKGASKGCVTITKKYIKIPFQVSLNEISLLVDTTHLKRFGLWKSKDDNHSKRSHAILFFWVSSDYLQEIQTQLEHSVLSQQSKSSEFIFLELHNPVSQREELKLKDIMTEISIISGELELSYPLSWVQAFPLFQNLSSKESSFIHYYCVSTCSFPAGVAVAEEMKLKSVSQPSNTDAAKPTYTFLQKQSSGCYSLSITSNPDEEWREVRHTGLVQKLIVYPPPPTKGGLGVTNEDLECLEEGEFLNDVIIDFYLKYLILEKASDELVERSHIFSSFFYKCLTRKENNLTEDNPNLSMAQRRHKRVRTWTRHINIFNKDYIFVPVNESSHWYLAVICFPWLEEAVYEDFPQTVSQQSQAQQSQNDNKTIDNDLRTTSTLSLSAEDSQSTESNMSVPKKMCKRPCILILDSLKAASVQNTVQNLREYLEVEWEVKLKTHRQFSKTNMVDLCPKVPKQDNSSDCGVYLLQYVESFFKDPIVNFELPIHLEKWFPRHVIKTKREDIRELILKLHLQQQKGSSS

COC(=O)c1ccccc1NC(=O)CSc1nc(O)cc(=O)n1C1CCCC1
IC50 [1]: 4.86 µM (active) | IC50 [2]: > 49.8 µM (inactive) | IC50 [3]: 0.137 µM (active) | IC50 [4]: 56.2 µM (inactive) | IC50 [5]: > 50 µM (inactive) | IC50 [6]: > 66.2 µM (inactive)

C=CCN1C(=O)c2ccc(C(=O)OCC(=O)N(CC)C3CCS(=O)(=O)C3)cc2C1=O (stereo not drawn)
IC50 [7]: > 89.2 µM (inactive) | EC50 [8]: > 54.7 µM (inactive) | EC50 [9]: > 54.7 µM (inactive) | EC50 [10]: > 54.7 µM (inactive)

COc1ccc(C2C(C#N)=C(/N=C/N(C)C)Oc3c2c(C)nn3-c2ccccc2)cc1 (stereo not drawn)
IC50 [11]: > 99 µM (inactive) | IC50 [12]: > 99 µM (inactive) | IC50 [13]: > 99 µM (inactive) | IC50 [14]: > 99 µM (inactive)

Fc1cc(F)cc(-c2noc(/C=C/c3ccccc3)n2)c1
IC50 [11]: > 99 µM (inactive) | IC50 [12]: > 99 µM (inactive) | IC50 [13]: > 99 µM (inactive) | IC50 [14]: > 99 µM (inactive)
